The source of these data is ChEMBL document CHEMBL1201862, “PubChem BioAssay data set” (2004).

Among the test systems are A549; PC-3; MDA-MB-435; SNB-75; IGROV-1; SNB-19; SW-620; OVCAR-3; UACC-257; HT-29; U-251; LOX IMVI; OVCAR-4; EKVX; SF-295; HCT-116; SK-MEL-2; MOLT-4; OVCAR-8; HL-60.
Assay in all cases: DTP human tumour cell line panel, 48 h

By GI50 is commonly meant the concentration that inhibits growth by half.

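Cultured in 96-well plates, cells were exposed to test compound for 48 hours across five concentrations. At the GI50, growth is halved.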 The source made the active and inactive calls. Cut-off read from the data, not from the text of the source: active = GI50 up to about 1.1 µM and inactive = higher. A value given as a limit tells only on which side of the number the result lay.

For `CN(C)c1ccc(/N=N\c2cccc3ccoc23)cc1`, the GI50 is > 71.9 µM (inactive) in the assay on A549; 59.6 µM (inactive) in the assay on PC-3; > 94.2 µM (inactive) in the assay on MDA-MB-435; > 84.3 µM (inactive) in the assay with SNB-75; > 70.3 µM (inactive) with IGROV-1; > 100 µM (inactive) with SNB-19. Moreover, the GI50 in the assay with SW-620 was 50.8 µM (inactive); in the assay with OVCAR-3, 38.4 µM (inactive); with UACC-257 it was > 60.7 µM (inactive); in the assay on HT-29, 29.5 µM (inactive); with U-251, > 62.5 µM (inactive); with LOX IMVI, > 100 µM (inactive). Moreover, the GI50 with OVCAR-4 was 29.4 µM (inactive); in the assay with EKVX it was 26.9 µM (inactive); with SF-295, 98.6 µM (inactive); in the assay on HCT-116, 69.2 µM (inactive); in the assay on SK-MEL-2, > 100 µM (inactive); with MOLT-4, 17.1 µM (inactive). Moreover, the GI50 in the assay with OVCAR-8 was > 78 µM (inactive); in the assay on HL-60, 23.8 µM (inactive).

As for `CN(C)CC1CCC/C(=C\c2ccc(OC(=O)/C=C/c3ccc(Cl)c(Cl)c3)cc2)C1=O` (stereo not given), the GI50 in the assay on A549 was 5.86 µM (inactive); in the assay on PC-3, 3.33 µM (inactive); in the assay on MDA-MB-435, 6.89 µM (inactive); in the assay with SNB-75 it was 18.4 µM (inactive); with IGROV-1, 1.47 µM (inactive); in the assay on SNB-19, 10.5 µM (inactive). The GI50 in the assay with SW-620 was 2.75 µM (inactive); in the assay with OVCAR-3, 3.48 µM (inactive); with UACC-257, 9.91 µM (inactive); in the assay with HT-29, 2.11 µM (inactive); in the assay on U-251 it was 6.17 µM (inactive); in the assay on LOX IMVI, 1.86 µM (inactive). In addition, the GI50 with OVCAR-4 is 22.9 µM (inactive); in the assay on EKVX, 5.9 µM (inactive); in the assay with SF-295 it was 7.11 µM (inactive); in the assay with HCT-116, 3.49 µM (inactive); in the assay with SK-MEL-2, 15.9 µM (inactive); in the assay with MOLT-4, 1.66 µM (inactive). Besides, the GI50 with OVCAR-8 is 3.92 µM (inactive); with HL-60 it was 0.796 µM (active).

For the molecule `ClC(Cl)=C1C(=C(Cl)Cl)C(Cl)(Cl)C1(Cl)Cl`, the GI50 with A549 is 9.51 µM (inactive); in the assay on PC-3, 2.31 µM (inactive); in the assay with MDA-MB-435 it was 2.71 µM (inactive); in the assay with SNB-75 it was 3.18 µM (inactive); in the assay on IGROV-1, 5.55 µM (inactive); with SNB-19, 12.5 µM (inactive). In addition, the GI50 is 1.18 µM (inactive) in the assay with SW-620; 4.31 µM (inactive) in the assay on OVCAR-3; 3.51 µM (inactive) with UACC-257; 2.02 µM (inactive) in the assay on HT-29; 5.41 µM (inactive) in the assay on U-251; 0.212 µM (active) in the assay on LOX IMVI. Moreover, the GI50 with OVCAR-4 was 5.07 µM (inactive); in the assay with EKVX, 7.52 µM (inactive); with SF-295, 2.48 µM (inactive); in the assay with HCT-116, 1.36 µM (inactive); in the assay with SK-MEL-2 it was 1.29 µM (inactive); with MOLT-4, 0.126 µM (active). Moreover, the GI50 was 1.49 µM (inactive) in the assay with OVCAR-8 and 0.625 µM (active) in the assay on HL-60.

Take `CC1=NC(C)(COC(=O)C2(C)NC(C)(CO)CO2)COC1=O` (stereo not given): the GI50 with A549, with PC-3, in the assay with MDA-MB-435, in the assay on SNB-75, in the assay on IGROV-1 and in the assay on SNB-19 was > 100 µM (inactive) each time. Also, the GI50 in the assay on SW-620, in the assay with OVCAR-3, with UACC-257, in the assay on HT-29, in the assay on U-251 and with LOX IMVI was > 100 µM (inactive) throughout. The GI50 with OVCAR-4, in the assay on EKVX, in the assay with SF-295, with HCT-116, in the assay on SK-MEL-2 and with MOLT-4 was > 100 µM (inactive) in each case. Also, the GI50 in the assay on OVCAR-8 and in the assay on HL-60 was > 100 µM (inactive) in each case.

Regarding `CCOC(=O)C(NC(=O)c1ccccc1)(Nc1ccc(S(=O)(=O)Nc2ccc(OC)nn2)cc1)C(F)(F)F` (stereo not given), the GI50 with A549, in the assay with PC-3, in the assay with MDA-MB-435, in the assay with SNB-75, in the assay with IGROV-1 and with SNB-19 was > 100 µM (inactive) throughout. For the same molecule, the GI50 with SW-620, in the assay on OVCAR-3, in the assay on UACC-257, in the assay with HT-29, with U-251 and in the assay on LOX IMVI was > 100 µM (inactive) in each case. Further, the GI50 with OVCAR-4, with EKVX, in the assay on SF-295, in the assay with HCT-116, in the assay on SK-MEL-2 and in the assay with MOLT-4 was > 100 µM (inactive) each time. Besides, the GI50 with OVCAR-8 and with HL-60 was > 100 µM (inactive) each time.

As for `Clc1ccc(C2c3ccccc3-c3nc4ccccc4n32)cc1` (stereo not given), the GI50 is 7.33 µM (inactive) in the assay on A549; 19.4 µM (inactive) in the assay with PC-3; 32.7 µM (inactive) in the assay with MDA-MB-435; 24.3 µM (inactive) in the assay with SNB-75; 12.6 µM (inactive) in the assay with IGROV-1; 31.7 µM (inactive) in the assay with SNB-19. For the same molecule, the GI50 in the assay with SW-620 is 44.8 µM (inactive); in the assay with OVCAR-3 it was 12.6 µM (inactive); with UACC-257 it was 53.7 µM (inactive); with HT-29 it was 20.9 µM (inactive); with U-251 it was 24.3 µM (inactive); in the assay on LOX IMVI, 19.7 µM (inactive). In addition, the GI50 in the assay on OVCAR-4 was 15.9 µM (inactive); in the assay on EKVX it was 16.5 µM (inactive); with SF-295 it was 3.48 µM (inactive); in the assay on HCT-116 it was 5.09 µM (inactive); with SK-MEL-2 it was 22.2 µM (inactive); with MOLT-4 it was 8.09 µM (inactive). Also, the GI50 with OVCAR-8 is 18.2 µM (inactive); in the assay with HL-60, 3.65 µM (inactive).

Consider `Cc1ccc(S(=O)(=O)NNCNC(=O)c2ccccc2)cc1`, for which the GI50 in the assay with A549 is > 100 µM (inactive); in the assay with PC-3, > 100 µM (inactive); in the assay with MDA-MB-435, 32.4 µM (inactive); with SNB-75 it was > 100 µM (inactive); in the assay with IGROV-1 it was > 100 µM (inactive); in the assay on SNB-19, > 100 µM (inactive). Besides, the GI50 in the assay on SW-620 is 94.8 µM (inactive); in the assay with OVCAR-3, > 100 µM (inactive); in the assay with UACC-257 it was > 100 µM (inactive); in the assay on HT-29 it was 61.2 µM (inactive); with U-251, > 100 µM (inactive); in the assay on LOX IMVI, 68.7 µM (inactive). The GI50 was > 100 µM (inactive) with OVCAR-4; > 100 µM (inactive) in the assay with EKVX; > 100 µM (inactive) with SF-295; > 100 µM (inactive) with HCT-116; > 100 µM (inactive) with SK-MEL-2; 24.2 µM (inactive) in the assay on MOLT-4. The GI50 in the assay on OVCAR-8 was > 100 µM (inactive); with HL-60 it was 16.4 µM (inactive).

Turning to `Cc1ccc(C(=O)/C=C2/Nc3ccc([N+](=O)[O-])cc3N/C2=C/C(=O)c2ccc(C)cc2)cc1`, the GI50 in the assay on A549 was > 100 µM (inactive); with PC-3, 92.3 µM (inactive); in the assay with MDA-MB-435, > 100 µM (inactive); in the assay on SNB-75 it was 10.6 µM (inactive); with IGROV-1 it was 42.5 µM (inactive); in the assay with SNB-19, 43.8 µM (inactive). Besides, the GI50 was > 100 µM (inactive) with SW-620; > 100 µM (inactive) with OVCAR-3; > 100 µM (inactive) in the assay on UACC-257; > 100 µM (inactive) in the assay with HT-29; 27.7 µM (inactive) in the assay on U-251; > 100 µM (inactive) in the assay on LOX IMVI. In addition, the GI50 with OVCAR-4 was 61.4 µM (inactive); in the assay with EKVX, 61.4 µM (inactive); with SF-295 it was 41.3 µM (inactive); in the assay with HCT-116 it was > 100 µM (inactive); in the assay with SK-MEL-2, 66.5 µM (inactive); in the assay on MOLT-4, > 100 µM (inactive). Besides, the GI50 is 36 µM (inactive) in the assay on OVCAR-8 and 34.7 µM (inactive) in the assay with HL-60.

On to `CN(C)c1ccc(C(C#N)N2CCCN(C(C#N)c3ccc(N(C)C)cc3)C2c2ccc(N(C)C)cc2)cc1` (stereo not given), for which the GI50 in the assay with A549, in the assay with PC-3, in the assay on MDA-MB-435, in the assay on SNB-75, with IGROV-1 and with SNB-19 was > 100 µM (inactive) in each case. Further, the GI50 in the assay with SW-620, in the assay on OVCAR-3, with UACC-257, in the assay on HT-29, in the assay with U-251 and in the assay with LOX IMVI was > 100 µM (inactive) in each case. Also, the GI50 with OVCAR-4, in the assay on EKVX, with SF-295, in the assay on HCT-116, with SK-MEL-2 and with MOLT-4 was > 100 µM (inactive) each time. Moreover, the GI50 with OVCAR-8 and with HL-60 was > 100 µM (inactive) throughout.

Turning to `Cc1ccc(S(=O)(=O)n2cc(C#N)c(C#N)c2)cc1`, the GI50 in the assay on A549 is 24.7 µM (inactive); in the assay on PC-3, 28.9 µM (inactive); in the assay on MDA-MB-435, 19.8 µM (inactive); in the assay on SNB-75, 32.7 µM (inactive); in the assay with IGROV-1 it was 31.1 µM (inactive); with SNB-19, > 10 µM (inactive). For the same molecule, the GI50 in the assay on SW-620 was 34.6 µM (inactive); in the assay with OVCAR-3 it was 22.5 µM (inactive); in the assay with UACC-257, 29.2 µM (inactive); with HT-29, 23.9 µM (inactive); in the assay with U-251, 13.3 µM (inactive); in the assay with LOX IMVI, 22.8 µM (inactive). In addition, the GI50 is 74 µM (inactive) in the assay with OVCAR-4; 30.2 µM (inactive) in the assay with EKVX; 23 µM (inactive) with SF-295; 31 µM (inactive) in the assay on HCT-116; 24.3 µM (inactive) in the assay with SK-MEL-2; 31.8 µM (inactive) in the assay on MOLT-4. Also, the GI50 with OVCAR-8 was 31.8 µM (inactive); with HL-60, 26.5 µM (inactive).
